Assay results: US4091102A, “Anti-depressant trans-hexahydropyrido[3,4-b]indoles” (Endo Laboratories, Inc., priority 1976, dated 1978)
Read-outs that look alike come from different tables or passages of the source.

Test system: tetrabenazine-induced sedation and depression in mice
Experiment: Antagonism of tetrabenazine-induced depression in mice orally at 1 hour post-drug
Assay type: in vivo, Carworth CF1 S female mice
Details: Mus musculus, oral, 1 hour post-drug (30 minutes after tetrabenazine 32 mg/kg intraperitoneally)
Source text: A standard procedure for detecting and comparing the antidepressant activity of compounds in this series for which there is good correlation with human efficacy is the prevention of tetrabenazine-induced sedation and depression in mice. (Everett, "The Dopa Response Potentiation Test and Its Use in Screening for Antidepressant Drugs", pp. 164-167 in "Antidepressant Drugs" [Proceedings of the First International Symposium], S. Garattini and M. N. G. Dukes, eds., 1967.). Groups of 10 Carworth CF1 S female mice, 18-21 g. each, were fasted 1.5 hours and were intubated with antagonist compounds at oral doses of 0, 5, 25, and 125 mg/kg or 0, 1, 3, 9, 27, and 81 mg/kg in 0.20 ml. of 1% Methocel (methylcellulose). The mice were challenged 30 minutes later with tetrabenazine (as the methane-sulfonate), 32 mg/kg intraperitoneally (dissolved in 0.20 ml. 0.05M KCl at pH 2.0). One hour after antagonist (30 minutes after tetrabenazine), the mice were examined for signs of exploratory activity and ptosis (eyelid closure). Normal exploratory activity (relief from sedation) was recorded when a mouse lifted by the tail from a group of 10 in a testing box and placed on a stainless steel testing box lid (12.5 × 8 inches with 0.33 inch mesh) either turned its head horizontally 30° in both directions or moved to the edge of the screen within 10 seconds after being placed on the screen. Relief from ptosis was recorded when exactly 2 seconds after placing the mouse facing the observer, lid closure was less than 50% in both eyes. The following table gives results. |ANTAGONISM OF TETRABENAZINE-INDUCED |DEPRESSION IN MICE ORALLY AT 1 HOUR |POST-DRUG

[1] = lid closure less than 50% in both eyes, read-out: ED50 for prevention of ptosis
[2] = relief from sedation (exploratory activity), read-out: ED50 for prevention of exploratory loss

Row | Structure (SMILES) | ED50 [1] | ED50 [2]
1 | CN(C)CCC=C1c2ccccc2CCc2ccccc21 [Amitriptyline, amitriptyline, reference compound] | 1.7 mg/kg | 4.7 mg/kg
2 | CCN1CCC2c3ccccc3N(c3ccccc3)C2C1C (stereo not drawn) [Ia] | 3 mg/kg | 4.2 mg/kg
3 | CC1C2C(CCN1C)c1ccccc1N2c1ccccc1 (stereo not drawn) [Ib] | 16 mg/kg | 38 mg/kg
4 | CCCN1CCC2c3ccccc3N(c3ccccc3)C2C1C (stereo not drawn) [Ic] | 14 mg/kg | 38 mg/kg
5 | CC(C)N1CCC2c3ccccc3N(c3ccccc3)C2C1C (stereo not drawn) [Id] | 11.2 mg/kg | 19 mg/kg
6 | CCC1C2C(CCN1C)c1ccccc1N2c1ccccc1 (stereo not drawn) [Ie] | 9.1 mg/kg | 11.2 mg/kg
7 | CCC1C2C(CCN1CC)c1ccccc1N2c1ccccc1 (stereo not drawn) [If] | 27 mg/kg | 38 mg/kg
8 | CC1NCCC2c3ccccc3N(c3ccccc3)C12 (stereo not drawn) [Ig] | 25 mg/kg | 31 mg/kg
9 | CCN1CC2C(CC1C)c1ccccc1N2c1ccccc1 (stereo not drawn) [Ij] | < 5 mg/kg | < 5 mg/kg
